Results published in patent publication US8420311B2, “Method to block the infection by flaviviruses, molecules and uses” (Centro de Ingenieria Genetica y Biotecnologia, priority 2006, dated 2013).
Where a SMILES comes first, the peptide text is derived from it. Bridges are numbered along the chain shown (N, C = ends). Where no end group is shown, it is not given here.

B1: A2M: human Alfa 2-macroglobulin purified from human plasma, Seq. ID. 2 (protein, listed as Homo sapiens)
chain: MGKNKLLHPSLVLLLLVLLPTDASVSGKPQYMVLVPSLLHTETTEKGCVLLSYLNETVTVSASLESVRGNRSLFTDLEAENDVLHCVAFAVPKSSSNEEVMFLTVQVKGPTQEFKKRTTVMVKNEDSLVFVQTDKSIYKPGQTVKFRVVSMDENFHPLNELIPLVYIQDPKGNRIAQWQSFQLEGGLKQFSFPLSSEPFQGSYKVVVQKKSGGRTEHPFTVEEFVLPKFEVQVTVPKIITILEEEMNVSVCGLYTYGKPVPGHVTVSICRKYSDASDCHGEDSQAFCEKFSGQLNSHGCFYQQVKTKVFQLKRKEYEMKLHTEAQIQEEGTVVELTGRQSSEITRTITKLSFVKVDSHFRQGIPFFGQVRLVDGKGVPIPNKVIFIRGNEANYYSNATTDEHGLVQFSINTTNVMGTSLTVRVNYKDRSPCYGYQWVSEEHEEAHHTAYLVFSPSKSFVHLEPMSHELPCGHTQTVQAHYILNGGTLLGLKKLSFYYLIMAKGGIVRTGTHGLLVKQEDMKGHFSISIPVKSDIAPVARLLIYAVLPTGDVIGDSAKYDVENCLANKVDLSFSPSQSLPASHAHLRVTAAPQSVCALRAVDQSVLLMKPDAELSASSVYNLLPEKDLTGFPGPLNDQDDEDCINRHNVYINGITYTPVSSTNEKDMYSFLEDMGLKAFTNSKIRKPKMCPQLQQYEMHGPEGLRVGFYESDVMGRGHARLVHVEEPHTETVRKYFPETWIWDLVVVNSAGVAEVGVTVPDTITEWKAGAFCLSEDAGLGISSTASLRAFQPFFVELTMPYSVIRGEAFTLKATVLNYLPKCIRVSVQLEASPAFLAVPVEKEQAPHCICANGRQTVSWAVTPKSLGNVNFTVSAEALESQELCGTEVPSVPEHGRKDTVIKPLLVEPEGLEKETTFNSLLCPSGGEVSEELSLKLPPNVVEESARASVSVLGDILGSAMQNTQNLLQMPYGCGEQNMVLFAPNIYVLDYLNETQQLTPEVKSKAIGYLNTGYQRQLNYKHYDGSYSTFGERYGRNQGNTWLTAFVLKTFAQARAYIFIDEAHITQALIWLSQRQKDNGCFRSSGSLLNNAIKGGVEDEVTLSAYITIALLEIPLTVTHPVVRNALFCLESAWKTAQEGDHGSHVYTKALLAYAFALAGNQDKRKEVLKSLNEEAVKKDNSVHWERPQKPKAPVGHFYEPQAPSAEVEMTSYVLLAYLTAQPAPTSEDLTSATNIVKWITKQQNAQGGFSSTQDTVVALHALSKYGAATFTRTGKAAQVTIQSSGTFSSKFQVDNNNRLLLQQVSLPELPGEYSMKVTGEGCVYLQTSLKYNILPEKEEFPFALGVQTLPQTCDEPKAHTSFQISLSVSYTGSRSASNMAIVDVKMVSGFIPLKPTVKMLERSNHVSRTEVSSNHVLIYLDKVSNQTLSLFFTVLQDVPVRDLKPAIVKVYDYYETDEFAIAEYNAPCSKDLGNA

What was measured:
DV1 = format: cell-based, dengue virus; details: peptides 0.1 mg/ml; Vero cells
Method: (§1) FIG. 17. Inhibition of the infection of Vero cells with DV1 and DV2. (A) Six-well plates with a monolayer at approximately 90% confluence were incubated for 30 min. at 37° C. with dilutions of the peptides in MEM medium. A dilution of either DV1 strain West Pac 74 or DV2 strain S16803 was then added, calculated so as to obtain an average of 100 lytic plaques per well, and the plates were incubated for 30 min. at 37° C. with the virus/peptide mixture. After the incubation the cells were washed twice, received the addition of MEM medium supplemented with non-essential amino acids, 1% fetal calf serum, 1% CMC, and finally were incubated for 5 days at 37° C. under a CO2 atmosphere. (B) Inhibitory effect of the peptides at 100 μMol/L. NRpep: Non-related peptide. Data on the sequence of the peptides 3H5pept (SEQ ID. 27), pepDIII-1 (SEQ ID. 28), HIII2CL (SEQ ID. 5) and HIII3CL (SEQ ID. 7), as well as on the region they span on DIII from DV, can be obtained from FIG. 11. The calculation of the inhibition percentages is described in Materials and Methods. (C) Inhibition of DV2 infection by using varying peptide concentrations. The viral plaques were visualized by staining with Naphtol Blue Black. Cell control: Untreated cells. Virus control: Cells incubated with the virus, but without peptide.
(§2) DIII has one of the most variable regions of the exposed surface of protein E. In fact, one of the antigenic characteristics of this domain is that the antibodies obtained against this region are predominantly serotype-specific (Roehrig J T, Bolin R A, Kelly R G (1998) Monoclonal antibody mapping of the envelope glycoprotein of the dengue 2 virus, Jamaica Virology 246:317-28). However, during the inhibition assay with different DV serotypes, the peptides display a wide-spectrum inhibitory activity, efficiently inhibiting the infection of strains of the homologous, as well as of the heterologous serotypes (table 3). It is important to notice that at the assayed concentration (0.1 mg/ml) all the peptides in all the conditions, with the exception of peptide HIII4CL for DV3, produced higher than 50% inhibition levels.

DV2 = format: cell-based, dengue virus; details: peptides 0.1 mg/ml; Vero cells
Method: as §1, §2

DV4 = format: cell-based, dengue virus; details: peptides 0.1 mg/ml; Vero cells
Text: as §2

DV3 = format: cell-based, dengue virus; details: for degree of reduction of the number of viral plaques, DV3: peptides 0.1 mg/ml, Vero cells
Text: as §2

[1] = target: T1, DIIIE2J (DIII from protein E of DV2) (Dengue virus type 2, UniProt P07564); test: Direct binding between DIIIE2J and A2M measured by Biacore; parameters: species or system DV2 strain Jamaica 1409; details: A2M 0.3 to 3 μMol/L
T1 construct: made in house; host or cells: Escherichia coli BL21(DE3)
Method: FIG. 6. Direct binding between DIIIE2J and A2M, measured by Biacore. Response curves obtained during and after the injection of (B) Monoclonal antibodies against DV serotype 2 (3H5) and against all FV (4G2); (C) Polyclonal mouse antibody preparations obtained by immunization with DV1 and DV2, including pre-immune sera and (D) A2M dilutions, at concentrations from 0.3 μMol/L to 3 μMol/L. The run was performed on PBS pH 7.4 at 25° C. The different A2M dilutions were loaded at a flow of 5 μL/min for 20 min. The response is represented in resonance units (RU) corrected for unspecific binding using the response from the channel without immobilized protein (less than 5% of the specific signal).
A cm5 chip (Biacore, Sweden) was used for the covalent immobilization of the DIIIE2J and LRP1 proteins. The immobilization was carried out at 25° C., with a flow of 5 μL/min and using HBS (Biacore, Sweden) as running buffer. The surface of the chip was activated by loading 35 μL of 0.2 Mol/L […] (EDC) and 0.05 Mol/L N-hydroxysuccinimide (NHS). Afterwards the proteins, dissolved in 10 mM sodium acetate buffer pH 4.5, were loaded into the system. At the end of the immobilization, 35 μL of 1 M ethanolamine pH 8 were loaded into the system in order to block any remaining free activated groups. The channel to be used as a negative control in each case received only the activating injections with the EDC:NHS solution and the blocking with ethanolamine, employing the same flow and injection volume. The results were analyzed using the BIAevaluation ver. 4.1 software application package (Biacore, Sweden).
In order to estimate the strength of the interaction between DIIIE2J and human A2M, 1600 RU of DIIIE2J were covalently immobilized on a CM5 chip (channel 1, FIG. 6A) (Biacore, Sweden), following the procedure described in the Materials and Methods section. […]

T1 sequence (P07564 568-687, looked up, natural form): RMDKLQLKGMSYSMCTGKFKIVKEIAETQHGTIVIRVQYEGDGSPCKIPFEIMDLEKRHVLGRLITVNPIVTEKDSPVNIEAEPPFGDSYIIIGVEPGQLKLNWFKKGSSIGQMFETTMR

Molecule | degree of reduction of the number of viral plaques, DV1 (DV1) | degree of reduction of the number of viral plaques, DV2 (DV2) | degree of reduction of the number of viral plaques, DV4 (DV4) | inhibition level, DV3 (DV3; 0.1 mg/ml) | degree of reduction of the number of viral plaques, DV3 (DV3) | nature of the interaction between both proteins [1] | Kd ([1]; immobilized DIIIE2J, PBS pH 7.4 at 25° C., read-out: apparent Kd)
CC[C@H](C)[C@@H]1NC(=O)[C@H](Cc2ccc(O)cc2)NC(=O)[C@H](CO)NC(=O)[C@@H](N)CSSC[C@@H](C(N)=O)NC(=O)[C@H](Cc2c[nH]c3ccccc23)NC(=O)[C@H](Cc2c[nH]cn2)NC(=O)[C@H](CC(C)C)NC(=O)[C@H]([C@@H](C)O)NC(=O)[C@H](CC(C)C)NC(=O)[C@H](C)NC(=O)[C@H](CO)NC(=O)[C@H](CC(N)=O)NC(=O)CNC(=O)[C@H](C(C)C)NC(=O)CNC(=O)[C@H]([C@@H](C)CC)NC(=O)[C@H](C(C)C)NC1=O [HDIII4CL] (H-CSYIVIGVGNSALTLHWC-NH2; disulfide 1-18; N-terminus assumed) | + (50% or higher decrease) | + (50% or higher decrease) | + (50% or higher decrease) | ≤ 50% | +/− (10-50% decrease in the number of plaques) | – | –
HDIII1CL: cyclic synthetic peptide based on the FG beta hairpin of DIII of protein E from DV1, SEQ ID. 6 (CSYIVVGAGEKALKLSWC-NH2; disulfide 1-18 (inferred)) | + (50% or higher decrease) | + (50% or higher decrease) | + (50% or higher decrease) | – | + (50% or higher decrease) | – | –
B1 | – | – | – | – | – | saturable and reversible | ~100 nM
